Measurements reported in ChEMBL document CHEMBL5223078, “Proteases and Their Modulators in Cancer Therapy: Challenges and Opportunities” (J Med Chem, 2021).

Columns and labels:
[1] = target: von Hippel-Lindau disease tumor suppressor/GTPase KRas (Homo sapiens, UniProt P01116+P40337); test: Protac activity at VHL E3 ligase/KRAS G12 degradation in human MDA-MB-231 cells assessed as […] by western blot analysis; format: cell-based
[2] = target: Protein cereblon/Tyrosine-protein kinase BTK (Homo sapiens, UniProt Q06187+Q96SW2, C481S); test: Protac activity at CRBN (unknown origin)/BTK C481S mutant (unknown origin) assessed as BTK C481S mutant degradation; format: protein assay
Chain of Protein cereblon/Tyrosine-protein kinase BTK (Q06187 2-659 C481S limits assumed, stated change not applied): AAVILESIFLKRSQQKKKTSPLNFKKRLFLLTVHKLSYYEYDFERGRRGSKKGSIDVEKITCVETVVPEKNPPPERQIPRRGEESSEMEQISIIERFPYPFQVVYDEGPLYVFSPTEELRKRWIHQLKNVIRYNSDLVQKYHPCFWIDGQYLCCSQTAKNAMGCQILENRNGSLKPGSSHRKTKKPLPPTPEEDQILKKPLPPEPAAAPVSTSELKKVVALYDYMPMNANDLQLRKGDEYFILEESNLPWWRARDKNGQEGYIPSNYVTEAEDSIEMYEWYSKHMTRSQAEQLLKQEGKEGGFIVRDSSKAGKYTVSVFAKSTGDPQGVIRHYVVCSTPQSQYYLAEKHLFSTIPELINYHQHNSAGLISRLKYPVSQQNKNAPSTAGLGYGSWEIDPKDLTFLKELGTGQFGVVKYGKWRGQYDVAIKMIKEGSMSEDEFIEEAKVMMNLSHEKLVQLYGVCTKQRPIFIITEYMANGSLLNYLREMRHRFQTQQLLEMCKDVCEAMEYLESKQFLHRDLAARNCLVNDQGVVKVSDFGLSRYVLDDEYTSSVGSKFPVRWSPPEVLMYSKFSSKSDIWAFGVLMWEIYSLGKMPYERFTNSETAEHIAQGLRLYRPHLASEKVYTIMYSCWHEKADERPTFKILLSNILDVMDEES
Chain of Protein cereblon/Tyrosine-protein kinase BTK (Q96SW2 whole entry, stated change not applied): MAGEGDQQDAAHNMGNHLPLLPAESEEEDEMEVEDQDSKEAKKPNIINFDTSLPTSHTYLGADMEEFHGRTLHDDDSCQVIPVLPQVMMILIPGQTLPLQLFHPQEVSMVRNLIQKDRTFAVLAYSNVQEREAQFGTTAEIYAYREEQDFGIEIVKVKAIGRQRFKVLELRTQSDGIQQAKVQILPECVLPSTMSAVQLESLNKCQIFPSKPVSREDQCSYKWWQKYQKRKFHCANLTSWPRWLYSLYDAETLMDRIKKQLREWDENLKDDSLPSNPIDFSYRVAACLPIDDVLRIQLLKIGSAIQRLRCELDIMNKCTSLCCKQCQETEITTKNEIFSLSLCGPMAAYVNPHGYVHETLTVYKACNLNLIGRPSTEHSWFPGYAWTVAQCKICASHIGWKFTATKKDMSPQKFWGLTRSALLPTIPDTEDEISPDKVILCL

20S proteasome = test: Inhibition of 20S proteasome (unknown origin); format: protein-complex assay, Homo sapiens
MDA-MB-231 [3] = test: Antitumor activity against human MDA-MB-231 cells xenografted in mouse model assessed as reduction in ERRalpha level in mouse kidney at 100 mg/kg, ip administered 3 times a day relative to control; format: functional; design: scale not given: the % may be the effect or the level left
MDA-MB-231 [4] = test: Antitumor activity against human MDA-MB-231 cells xenografted in mouse model assessed as reduction in ERRalpha level in mouse heart at 100 mg/kg, ip administered 3 times a day relative to control; format: functional; design: scale not given: the % may be the effect or the level left
MDA-MB-231 [5] = test: Antitumour activity against human MDA-MB-231 cells xenografted in mouse model assessed as reduction in ERRalpha level of tumor growth at 100 mg/kg, ip administered 3 times a day relative to control; format: functional; design: scale not given: the % may be the effect or the level left
SUM-159-PT [6] = test: Inhibition of colony formation in human SUM159PT assessed as complete inhibition of cell growth measured after 48 hrs by crystal violet staining based analysis; format: functional
SUM-159-PT [7] = test: Cytotoxicity against human SUM159PT cells assessed as cell growth inhibition measured after 72 hrs by MTS assay; format: functional, cell-based
OCI-AML2 = test: Cytotoxicity against human OCI-AML2 cells assessed as cell growth inhibition measured after 72 hrs by spectrophotometry; format: functional, cell-based; details: OCI-AML2, 72 h
[8] = Cytotoxicity against human TEX cells assessed as cell growth inhibition measured after 72 hrs by spectrophotometry; format: functional, cell-based
OCI-AML-3 = test: Cytotoxicity against human OCI-AML-3 cells assessed as cell growth inhibition measured after 72 hrs by spectrophotometry; format: functional, cell-based; details: OCI-AML-3, 72 h
HCT-116 = test: Antiproliferative activity against human HCT-116 cells assessed as reduction in cell viability at 200 nm measured after 72 hrs by MTS assay relative to control; format: functional

Chain of von Hippel-Lindau disease tumor suppressor/GTPase KRas (P01116 whole entry): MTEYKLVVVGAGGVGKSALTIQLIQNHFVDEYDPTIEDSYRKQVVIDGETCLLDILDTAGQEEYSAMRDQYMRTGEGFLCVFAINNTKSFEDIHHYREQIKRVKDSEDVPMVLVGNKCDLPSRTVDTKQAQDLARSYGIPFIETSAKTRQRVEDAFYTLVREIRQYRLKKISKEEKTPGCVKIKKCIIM
Chain of von Hippel-Lindau disease tumor suppressor/GTPase KRas (P40337 whole entry): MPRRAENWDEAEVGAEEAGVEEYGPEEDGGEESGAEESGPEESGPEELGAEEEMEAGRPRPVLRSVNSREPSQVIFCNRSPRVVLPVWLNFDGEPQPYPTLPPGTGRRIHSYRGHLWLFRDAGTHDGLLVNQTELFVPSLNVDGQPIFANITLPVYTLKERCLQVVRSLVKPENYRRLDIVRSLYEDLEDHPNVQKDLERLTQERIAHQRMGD

## C=C(F)C(=O)N1CCN(c2nc(OC[C@@H]3CCCN3CCCOCCC(=O)N[C@H](C(=O)N3C[C@H](O)C[C@H]3C(=O)NCc3ccc(-c4scnc4C)cc3)C(C)(C)C)nc3c2CCN(c2cccc4cccc(Cl)c24)C3)C[C@@H]1CC#N
[1]
  DC50: 250 nM

## Nc1ncnc2c1c(-c1ccc(Oc3ccccc3)cc1)nn2[C@@H]1CCCN(C(=O)c2cn(CCOCCOCCOCCCc3cccc4c3C(=O)N(C3CCC(=O)NC3=O)C4=O)nn2)C1 (stereo partly drawn)
[2]
  DC50: 50 nM

## CC[C@H]1C(=O)NC2([C@@H](O)[C@@H]3C=CCCC3)C(=O)O[C@@H]12 (stereo partly drawn)
20S proteasome
  IC50: 90 nM

## COc1cc(/C=C2\SC(=O)N(CCOCCC(=O)N[C@@H](C(=O)N3C[C@H](O)C[C@H]3C(=O)NCc3ccc(-c4scnc4C)cc3)C(C)(C)C)C2=O)ccc1Oc1ccc(C#N)cc1C(F)(F)F
MDA-MB-231 [3]
  Activity: 44%
MDA-MB-231 [4]
  Activity: 44%
MDA-MB-231 [5]
  Activity: 39%

## Cn1c2c(c(=O)n(Cc3ccc(Cl)cc3)c1=O)CN(Cc1cccc(C#N)c1)CC2
SUM-159-PT [6]
  INH: 30 nM
SUM-159-PT [7]
  IC50: 14 nM

## Cc1cccc(CN2CCc3c(c(=O)n(Cc4ccc(C(F)(F)F)cc4)c(=O)n3CCCN)C2)c1
SUM-159-PT [7]
  IC50: 57 nM

## N#Cc1cccc(CN2CCC3=C(C2)C(=O)N(Cc2ccc(C(F)(F)F)cc2)C2=NCCN23)c1
SUM-159-PT [7]
  IC50: 11 nM

## O=C1C2=C(CCN(Cc3ccccc3)C2)N2CCN=C2N1Cc1ccc(C(F)(F)F)cc1
OCI-AML2
  IC50: 76 nM
[8]
  IC50: 71 nM
OCI-AML-3
  IC50: 60 nM
SUM-159-PT [7]
  IC50: 77 nM
HCT-116
  Activity: 10%

## C#Cc1cccc(CN2CCC3=C(C2)C(=O)N(Cc2ccc(C)cc2)C2=NCCN23)c1
SUM-159-PT [7]
  IC50: 100 nM

## CCCC[C@@H](C=O)NC(=O)[C@H](CC(C)C)NC(=O)[C@@H](CC(C)C)NC(=O)CC
20S proteasome
  IC50: 90 nM

## N#Cc1cccc(CN2CCC3=C(C2)C(=O)N(Cc2ccc(Cl)cc2)C2=NCCN23)c1
SUM-159-PT [7]
  IC50: 7.4 nM
